Test results reported in US11351138B2, “Composition for use in the treatment of epilepsy” (VITAFLO INTERNATIONAL LTD, priority 2017, dated 2022).
“Also recorded” adds a separate entry of the source.

Assays:
[1] = system: SH-SY5Y cells; assay: Cell viability, Trypan Blue exclusion test; format: cell-based; settings: 50 μM etomoxir, 20 h + 6 h; data not shown
Experimental: Cells were incubated for 20 h at 37° C. and 5% CO2 with 50 μM etomoxir in DMEM media supplemented with 10% FBS, and then a further 6 h at 37° C. with 50 μM etomoxir in DMEM media without FBS. Cells were then lifted from wells with 1 ml 0.25% trypsin-EDTA, suspended in 4 ml culture medium and centrifuged for 4 minutes at 500×g. Supernatant was removed and cells suspended in 1 ml of fresh culture medium. Viability of cells was then tested using the Trypan Blue exclusion test.

[2] = target: T1, GluA2/3 AMPA receptors (Homo sapiens, UniProt P42262+P42263); settings: Chang et al., Brain 2016; cited from earlier work
T1 construct: expressed in transfected cells; host or cells: Xenopus laevis oocytes injected with in vitro transcribed cRNA (GluA2 and GluA3, nominal 1:1)
T1 sequence (P42262 25-883 isoform P42262-2 limits assumed): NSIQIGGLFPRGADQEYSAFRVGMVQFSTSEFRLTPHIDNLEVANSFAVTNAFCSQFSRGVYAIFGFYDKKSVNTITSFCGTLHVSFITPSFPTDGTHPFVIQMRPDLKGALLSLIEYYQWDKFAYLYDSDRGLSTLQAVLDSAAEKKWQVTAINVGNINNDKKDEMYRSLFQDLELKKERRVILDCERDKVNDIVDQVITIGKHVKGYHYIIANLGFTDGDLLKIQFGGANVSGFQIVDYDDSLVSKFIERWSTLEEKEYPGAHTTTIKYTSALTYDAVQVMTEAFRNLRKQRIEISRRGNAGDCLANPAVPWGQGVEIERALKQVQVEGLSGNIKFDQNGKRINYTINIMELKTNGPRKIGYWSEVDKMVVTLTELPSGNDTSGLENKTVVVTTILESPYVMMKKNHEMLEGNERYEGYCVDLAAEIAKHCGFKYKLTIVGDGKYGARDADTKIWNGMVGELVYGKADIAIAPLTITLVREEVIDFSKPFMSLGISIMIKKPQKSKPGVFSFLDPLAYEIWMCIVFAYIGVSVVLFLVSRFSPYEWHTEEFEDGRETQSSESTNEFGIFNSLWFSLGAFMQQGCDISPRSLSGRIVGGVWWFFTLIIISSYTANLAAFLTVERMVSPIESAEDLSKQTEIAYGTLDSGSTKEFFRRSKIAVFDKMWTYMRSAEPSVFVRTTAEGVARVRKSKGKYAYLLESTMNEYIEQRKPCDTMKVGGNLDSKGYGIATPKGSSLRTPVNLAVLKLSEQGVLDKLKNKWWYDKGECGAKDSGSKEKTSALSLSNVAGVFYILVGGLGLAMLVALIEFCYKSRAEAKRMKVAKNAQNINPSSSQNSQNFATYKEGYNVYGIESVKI
T1 sequence (P42263 29-894 isoform P42263-2 limits assumed): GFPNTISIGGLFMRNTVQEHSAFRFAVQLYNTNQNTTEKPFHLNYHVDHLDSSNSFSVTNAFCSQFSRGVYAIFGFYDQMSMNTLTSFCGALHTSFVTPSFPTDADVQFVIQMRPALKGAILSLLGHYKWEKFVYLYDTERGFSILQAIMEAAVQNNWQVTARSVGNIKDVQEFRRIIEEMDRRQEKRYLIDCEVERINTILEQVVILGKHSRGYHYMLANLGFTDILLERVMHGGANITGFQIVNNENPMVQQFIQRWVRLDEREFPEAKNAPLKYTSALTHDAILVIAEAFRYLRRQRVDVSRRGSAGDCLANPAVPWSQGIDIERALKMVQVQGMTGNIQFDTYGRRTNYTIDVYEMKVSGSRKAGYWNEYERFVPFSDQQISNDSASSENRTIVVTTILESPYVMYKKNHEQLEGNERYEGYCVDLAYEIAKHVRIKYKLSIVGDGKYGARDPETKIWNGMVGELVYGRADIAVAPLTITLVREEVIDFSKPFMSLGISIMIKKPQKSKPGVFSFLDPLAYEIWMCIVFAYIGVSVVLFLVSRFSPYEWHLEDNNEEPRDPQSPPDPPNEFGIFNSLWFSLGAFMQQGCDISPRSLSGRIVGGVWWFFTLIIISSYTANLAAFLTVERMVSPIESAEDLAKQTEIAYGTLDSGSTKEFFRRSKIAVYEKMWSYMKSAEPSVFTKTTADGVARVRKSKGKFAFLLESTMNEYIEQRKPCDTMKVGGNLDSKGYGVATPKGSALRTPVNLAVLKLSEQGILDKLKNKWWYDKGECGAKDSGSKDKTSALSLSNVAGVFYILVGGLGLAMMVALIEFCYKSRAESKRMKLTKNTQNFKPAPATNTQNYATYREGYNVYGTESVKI

[3] = clinically relevant concentrations, in vitro and in vivo; cited from earlier work
[4] = system: SH-SY5Y cells; assay: CPT1 inhibition assay (etomoxir), oxidation rates in SH-SY5Y cells; format: cell-based; settings: for Oxidation rate +Etomoxir / Oxidation rate −Etomoxir: 250 μM substrate, mean±SEM; for Oxidation rate +Etomoxir: 50 μM etomoxir; for Oxidation rate −Etomoxir: without etomoxir
Experimental: C16:BSA complex (5:1 molar ratio fatty acid:BSA). […] Both solutions were aliquoted and stored at −20° C. until further use.
A stock solution of 50 mM etomoxir was prepared in sterile cell culture grade water and stored in aliquots at −20° C. On day 5 of culture, growth medium was replaced with 2 ml DMEM formula containing 3 mM D-glucose and 10% FBS. Cells were incubated with or without the presence of 50 μM etomoxir, for 20 h at 37° C. and 5% CO2. […] C8 or [U-^13C] C16:BSA, with 50 μM etomoxir also added to previously exposed cells. Wells were then sealed with heavy mineral oil, with cells incubated and media sampled as previously described.
Samples were thawed at room temperature and 100 μl 1M hydrochloric acid was injected through the septum into each vial to release CO2 from the media. Vials were centrifuged for 30 seconds at 500×g. Samples were then analysed on a GasBench II coupled to a Thermo Delta-XP isotope-ratio mass spectrometer.

[5] = cited from earlier work
[6] = animal models; cited from earlier work
[7] = target: T1, GluA2/3 AMPA receptors; assay: AMPA receptor (GluA2/3) currents in Xenopus oocytes, two-electrode voltage clamp; format: cell-based; settings: GluA2/3 in oocytes, 100 uM glutamate, total medium chain fatty acid content 1 mM
Experimental: The AMPA receptor (flip isoform) cDNAs inserted in a SP6 polymerase expression vector (pSP6T) were a gift from Prof Ralf Schoepfer (NPP, UCL). RNA was transcribed in vitro from Miu I linearised transcripts using the SP6 Promega RiboMax RNA synthesis kit (Madison, Wis.) according to manufacturers protocols except for the addition of 0.75 mM capping nucleotide m7G(5′)ppp(5′)G (Promega, Madison, Wis.) and 1.6 mM GTP. cRNA concentrations and integrity were estimated by the intensity of fluorescence bands in RNA denaturating gels. AMPA receptor cRNAs were mixed in a nominal 1:1 ratio and approximately 5 ng was injected per oocyte.
Xenopus laevis oocytes were purchased from the European Xenopus Resource Centre, University of Portsmouth. Stage V to VI oocytes were mechanically dissected and then subjected to gentle shaking for approximately 30-50 min at room temperature with modified Barth's solution (in mM): NaCl 88, KCl 1, NaHCO32.4, MgCb 0.82, CaCl2) 0.77, Tris-Cl 15, adjusted to pH 7.4 with NaOH (Sigma-Aldrich, UK), supplemented with 50 IU/ml penicillin and 50 μg/ml streptomycin (Invitrogen, UK) and 50 μg/ml tetracycline (Sigma-Aldrich, UK) and 1% collagenase (type 1A). […]

[8] = system: SH-SY5Y cells; assay: C10 and C8 co-incubation, C10 oxidation in SH-SY5Y cells; format: cell-based; settings: 250 μM [1-13C]C10 plus 62.5 μM unlabelled C8
Experimental: The effects of co-incubating C10 and C8 on C10 oxidation in SH-SY5Y cells were also explored. Additional stock solutions of 25 mM C8 and 100 mM [1-^13C]C10 were prepared in DMSO, sterile-filtered and stored in aliquots at −20° C. Cells were cultured and incubated for 20 h in 10% FBS-supplemented DMEM media containing 3 mM D-glucose, as previously described. Media was then removed and cells washed. Media was then replaced with 3 ml DMEM containing either 3 mM [U-^13C]glucose and vehicle control DMSO, or 3 mM unlabelled D-glucose. In each D-glucose-supplemented well, cells were treated with either a final concentration of 250 μM [1-^13C] C10, or 250 μM [1-^13C]C10 plus 62.5 μM C8, at a fixed total volume. Wells were then sealed with heavy mineral oil, cells incubated and media sampled as previously outlined.
Samples were thawed at room temperature and 100 μl 1M hydrochloric acid was injected through the septum into each vial to release CO2 from the media. Vials were centrifuged for 30 seconds at 500×g. Samples were then analysed on a GasBench II coupled to a Thermo Delta-XP isotope-ratio mass spectrometer. Ten repeat injections were carried out per sample, with d^13C/^12C ratios measured against Vienna Pee Dee Belemnite (VPDB) using a calibrated CO2 reference gas. ^13CO2/^12CO2 ratios were converted to mole percent excess using absolute molar ratio of ^13C to ^12C (0.0111796) in VPDB. […]

[9] = system: SH-SY5Y cells; format: cell-based; settings: human, 6 h, 250 μM
Experimental: SH-SY5Y cells were utilised between passages 20-24 for all experimental procedures. Cells were cultured in 1:1 Dulbecco's Modified Eagle's Medium (DMEM)/F12 media, containing 17.5 mM glucose and supplemented with 100 ml/L heat-inactivated foetal bovine serum (FBS) and 10 ml/L 200 mM L-glutamine. All cells were maintained in a humidified atmosphere at 37° C. and 5% CO2. Cells were sub-cultured by washing with 10 ml/flask Mg^2+1c a ^2+-free Dulbecco's phosphate-buffered saline (DPBS), lifted with 2 ml 0.25% trypsin-EDTA and suspended in 8 ml culture medium to inactivate the trypsin. The cell suspension was transferred to a falcon tube and centrifuged for 4 minutes at 500×g. The supernatant was removed and cells suspended in a known volume of fresh culture medium. Cells were counted using the Trypan Blue exclusion test for viability. A known volume of the cell suspension was mixed 1:1 with 0.4% Trypan Blue solution and counted with a Bio-Rad TC20™ Automated Cell Counter (Hemel Hempstead, UK). […]
Samples were thawed at room temperature and 100 μl 1M hydrochloric acid was injected through the septum into each vial to release CO2 from the media. […] Samples were then analysed on a GasBench II coupled to a Thermo Delta-XP isotope-ratio mass spectrometer. […]

CCOC(=O)[C@@]1(CCCCCCOc2ccc(Cl)cc2)CO1 [etomoxir]
effect on viability of SH-SY5Y cells [1]: no effect on viability

CCCCCCCC(=O)O [octanoic acid, Octanoic acid]
effect on AMPA receptors / AMPA receptor currents [2]: no effect on AMPA receptor currents | anti-seizure effects [3]: not | reduction of oxidation in the presence of etomoxir ([4]; human, 6 h, 250 μM): 34% | concentration in peripheral blood (average) [5]: around 306 μM | concentration in peripheral blood (range) [5]: 104 to 859 µM

CCCCCCCCCC(=O)O [decanoic acid, Decanoic acid]
ratio in blood plasma to brain [6]: around 0.7 | inhibition of AMPA receptor currents by decanoic acid:octanoic acid ratios [7]: no increase in AMPA receptor inhibition | effect on AMPA receptors / AMPA receptor currents [2]: inhibits AMPA receptors | anti-seizure effects [3]: acute antiseizure effects; also recorded: has anti-seizure effects | reduction of oxidation in the presence of etomoxir ([4]; human, 6 h, 250 μM): 95% | impairment of oxidation rate of C10 by C8 addition [8]: 29% | concentration in peripheral blood (average) [5]: 157 µM | concentration in peripheral blood (range) [5]: 87 to 552 µM | C10 oxidation lower than that of C8 by [9]: approximately 80%

CCCCCCC[13C](=O)O [[1-^13C]C8, [1^13C]octanoic acid]
Oxidation rate +Etomoxir [4]: 0.75 ± 0.06 nmol/h | Oxidation rate −Etomoxir [4]: 1.14 ± 0.11 nmol/h

[13CH3][13CH2][13CH2][13CH2][13CH2][13CH2][13CH2][13CH2][13CH2][13CH2][13CH2][13CH2][13CH2][13CH2][13CH2][13C](=O)O [[U-^13C]C16, [U-^13C]palmitic acid, reference compound]
reduction of oxidation in the presence of etomoxir ([4]; 50 μM etomoxir (CPT1 inhibition)): 99% | Oxidation rate +Etomoxir [4]: 0.002 ± 0.003 nmol/h | Oxidation rate −Etomoxir [4]: 0.22 ± 0.05 nmol/h
